# Data published in patent publication US20100113517A1, “METHOD FOR THE TREATMENT OF FABRY DISEASE USING PHARMACOLOGICAL CHAPERONES” (AMICUS THERAPEUTICS, INC., priority 2007, published 2010).
# Changes are numbered by the printed parent chain.
# Assays:
# [1] = Phase Ib twice daily oral dose study, safety and tolerability; type: in vivo, healthy volunteers (human)
# Description: Study Design and Duration. […] Subjects were housed in the treatment facility from 14 hours prior to dosing until 24 hours after dosing. Meals were controlled by schedule and subjects remained abulatory for 4 hours post drug administration
# (§1) Safety and Tolerability Assessments.
# WBC α-GAL A Enzymatic Activity Sampling. Blood samples (10 mL each) were collected in blood collection tubes containing EDTA and WBC extracted before dosing and at the following times thereafter: 100 hours, 150 hours, and 336 hours. Samples were treated as described above, and WBC α-Gal A enzymatic activity levels were determined as described in Desnick, R. J. (ed) Enzyme therapy in genetic diseases. Vol 2. Alan R Liss, New York, pp 17-32. Statistical Analysis. Safety data including laboratory evaluations, physical exams, adverse events, ECG monitoring and vital signs assessments were summarized by treatment group and point of time of collection. Descriptive statistics (arithmetic mean, standard deviation, median, minimum and maximum) were calculated for quantitative safety data as well as for the difference to baseline. Frequency counts were compiled for classification of qualitative safety data. In addition, a shift table describing out of normal range shifts was provided for clinical laboratory results. A normal-abnormal shift table was also presented for physical exam results and ECGs. […]
# [2] = Phase I ascending single oral dose study, safety and tolerability; type: in vivo, healthy volunteers (human); conditions: healthy male subjects, single doses 25 mg through 675 mg
# Description: Study Design and Duration. […] Dose escalation to the next dose level (i.e., next group) proceeded following review of safety and tolerability of the previous group(s). Subjects were housed in the treatment facility from 14 hours prior to dosing until 24 hours after dosing. Meals were controlled by schedule and subjects remained abulatory for 4 hours post drug administration.
# as §1
# Statistical Analysis. Safety data including laboratory evaluations, physical exams, adverse events, ECG monitoring and vital signs assessments were summarized by treatment group and point of time of collection. Descriptive statistics (arithmetic mean, standard deviation, median, minimum and maximum) were calculated for quantitative safety data as well as for the difference to baseline. Frequency counts were compiled for classification of qualitative safety data. In addition, a shift table describing out of normal range shifts was provided for clinical laboratory results. A normal-abnormal shift table was also be presented for physical exam results and ECGs.
# Concomitant medications and medical history were listed by treatment.
# [3] = target: T1, α-Gal A (Homo sapiens, UniProt P06280); test: Phase Ib WBC α-Gal A enzymatic activity; type: in vivo, healthy volunteers (human)
# T1 construct: α-Gal A activity was calculated in white blood cells (WBC) before dosing began; endogenous in cells; host or cells: white blood cells of healthy human volunteers
# T1 sequence (P06280 32-429): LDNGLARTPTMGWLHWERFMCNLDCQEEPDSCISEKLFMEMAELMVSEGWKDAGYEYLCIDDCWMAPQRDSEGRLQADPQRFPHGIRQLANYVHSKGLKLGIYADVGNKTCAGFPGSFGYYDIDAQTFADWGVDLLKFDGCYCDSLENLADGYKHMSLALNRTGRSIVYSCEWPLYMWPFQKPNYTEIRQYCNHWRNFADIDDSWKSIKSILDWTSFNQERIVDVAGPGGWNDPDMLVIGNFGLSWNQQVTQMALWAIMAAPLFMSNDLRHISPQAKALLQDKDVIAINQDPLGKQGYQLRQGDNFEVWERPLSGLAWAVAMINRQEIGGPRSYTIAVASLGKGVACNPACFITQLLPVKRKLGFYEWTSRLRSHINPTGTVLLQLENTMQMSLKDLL
# Description: WBC α-GAL A Enzymatic Activity Sampling. Blood samples (10 mL each) were collected in blood collection tubes containing EDTA and WBC extracted before dosing and at the following times thereafter: 100 hours, 150 hours, and 336 hours. Samples were treated as described above, and WBC α-Gal A enzymatic activity levels were determined as described in Desnick, R. J. (ed) Enzyme therapy in genetic diseases. Vol 2. Alan R Liss, New York, pp 17-32. Statistical Analysis. Safety data including laboratory evaluations, physical exams, adverse events, ECG monitoring and vital signs assessments were summarized by treatment group and point of time of collection. Descriptive statistics (arithmetic mean, standard deviation, median, minimum and maximum) were calculated for quantitative safety data as well as for the difference to baseline. Frequency counts were compiled for classification of qualitative safety data. In addition, a shift table describing out of normal range shifts was provided for clinical laboratory results. A normal-abnormal shift table was also presented for physical exam results and ECGs.
# [4] = Phase II study in Fabry patients, cardiac, renal and central nervous system function; type: in vivo, Fabry patients (human); conditions: after 12 to 48 weeks of treatment
# Description: Study Design. A two-arm design was planned. […] In the second arm, escalating doses of 25, 100, and then 250 mg b.i.d. over 6 weeks, followed by 50 mg/day for the remainder of the study. Cardiac anaylsis. In addition to the biopsies described above, MRIs and echocardiogram with strain rate evaluations will be performed at baseline, 3 and 6 months to assess cardiac morphology (e.g., left ventricular hyertrophy) and cardiac function (e.g., congestive heart failure, ischemia, infarction, arrhythmia). […] Hypertension will also be ealuated since hypertension (associated with renal dysfunction) can increase the risk for hemorrhagic stroke.
# [5] = target: T2, human mutant α-Gal A (R301Q) (Homo sapiens, UniProt P06280, R301Q); conditions: neutral pH; cited from earlier work
# T2 construct: Tissue lysates were prepared by homogenizing about 50 mg tissue in assay buffer; from tissue; host or cells: heart, kidney, skin, liver and spleen of R301Q Tg/KO mice (human transgene, mouse α-Gal A knocked out)
# T2 sequence (P06280 32-429 R301Q): T1 sequence (P06280 32-429) with R270Q
smiles,measurement,setting,value
"OCC1NCC(O)C(O)C1O (stereo not drawn) [DGJ, 1-deoxygalactonojirimycin]",adverse events (AEs),[1]; after 50 mg b.i.d. or 150 mg b.i.d.,no subject presented with AEs
same,safety and tolerability,"[1]; healthy male subjects, 50 mg b.i.d. and 150 mg b.i.d., seven days",safe and well tolerated
same,safety and tolerability,[2],safe and well tolerated
same,inhibition of WBC α-Gal A enzymatic activity,[3]; 50 mg b.i.d. or 150 mg b.i.d.,did not inhibit
same,WBC α-Gal A enzymatic activity,"[3]; 50 mg b.i.d., 100 hours",120 % pre-dose levels
same,WBC α-Gal A enzymatic activity,"[3]; 50 mg b.i.d., 150 hours",130 % pre-dose levels
same,WBC α-Gal A enzymatic activity,"[3]; 50 mg b.i.d., 336 hours",145 % pre-dose levels
same,WBC α-Gal A enzymatic activity,"[3]; 150 mg b.i.d., 100 hours",150 % pre-dose levels
same,WBC α-Gal A enzymatic activity,"[3]; 150 mg b.i.d., 150 hours",185 % pre-dose levels
same,WBC α-Gal A enzymatic activity,"[3]; 150 mg b.i.d., 336 hours",185 % pre-dose levels
same,"cardiac, renal and central nervous system function",[4],no clinically meaningful changes
same,in vitro stability of mutant α-Gal A,[5],effectively increased
